Reference: ChEMBL document CHEMBL1201862, “PubChem BioAssay data set” (2004)
Active and inactive are the calls of the source.

Experiments:
[1] = target: T1, Tyrosine-protein phosphatase non-receptor type 22 (Homo sapiens, UniProt Q9Y2R2); experiment: PTPN22 lymphoid phosphatase activity blockers – biochemical, fluorescence intensity, uHTS (AID 1779)
T1 sequence (Q9Y2R2 whole entry): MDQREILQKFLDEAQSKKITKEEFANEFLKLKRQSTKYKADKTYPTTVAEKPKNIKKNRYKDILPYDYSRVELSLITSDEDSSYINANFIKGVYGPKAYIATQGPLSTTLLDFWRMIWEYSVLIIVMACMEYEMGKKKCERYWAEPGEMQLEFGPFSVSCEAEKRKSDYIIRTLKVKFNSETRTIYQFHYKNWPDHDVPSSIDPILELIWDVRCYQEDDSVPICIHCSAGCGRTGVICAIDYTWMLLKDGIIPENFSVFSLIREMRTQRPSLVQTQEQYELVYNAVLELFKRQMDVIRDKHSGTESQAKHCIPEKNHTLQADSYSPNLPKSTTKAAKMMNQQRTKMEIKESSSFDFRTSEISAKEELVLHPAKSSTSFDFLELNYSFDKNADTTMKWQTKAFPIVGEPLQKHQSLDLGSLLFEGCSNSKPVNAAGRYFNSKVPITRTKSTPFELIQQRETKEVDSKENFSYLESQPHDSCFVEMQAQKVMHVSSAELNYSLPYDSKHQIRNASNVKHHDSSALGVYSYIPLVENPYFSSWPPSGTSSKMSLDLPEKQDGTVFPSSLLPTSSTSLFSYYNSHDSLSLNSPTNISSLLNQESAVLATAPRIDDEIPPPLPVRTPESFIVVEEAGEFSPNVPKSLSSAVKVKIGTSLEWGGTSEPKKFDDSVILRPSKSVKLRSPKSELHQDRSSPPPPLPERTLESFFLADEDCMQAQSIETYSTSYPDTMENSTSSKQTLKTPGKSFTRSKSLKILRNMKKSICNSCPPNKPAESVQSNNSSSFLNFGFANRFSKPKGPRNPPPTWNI

[2] = target: T2, Dual specificity protein phosphatase 3 (Homo sapiens, UniProt P51452); experiment: SAR VHR1 absorbance Assay for In Vitro dose response studies. [Related pubchem assays (depositor defined):AID1654, AID1661, AID1878, AID1992, AID2004]
T2 sequence (P51452 whole entry): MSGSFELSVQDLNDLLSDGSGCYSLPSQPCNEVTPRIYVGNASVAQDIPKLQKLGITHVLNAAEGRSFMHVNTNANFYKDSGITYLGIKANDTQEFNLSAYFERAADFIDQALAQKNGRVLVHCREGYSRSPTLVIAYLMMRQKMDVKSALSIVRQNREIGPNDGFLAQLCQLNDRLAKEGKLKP

[3] = target: T2, Dual specificity protein phosphatase 3; experiment: SAR VHR1 Fluorescent Assay for In Vitro dose response studies Set 2. [Related pubchem assays (depositor defined):AID1654, AID1661, AID1878]; type: functional
[4] = target: T3, Carboxy-terminal domain RNA polymerase II polypeptide A small phosphatase 1 (Homo sapiens, UniProt Q9GZU7); experiment: CTDSP1 inhibitors, concentration-response, biochemical, absorbance readout, ultra-high-throughput screen actives (AID 540297); type: functional
T3 sequence (Q9GZU7 whole entry): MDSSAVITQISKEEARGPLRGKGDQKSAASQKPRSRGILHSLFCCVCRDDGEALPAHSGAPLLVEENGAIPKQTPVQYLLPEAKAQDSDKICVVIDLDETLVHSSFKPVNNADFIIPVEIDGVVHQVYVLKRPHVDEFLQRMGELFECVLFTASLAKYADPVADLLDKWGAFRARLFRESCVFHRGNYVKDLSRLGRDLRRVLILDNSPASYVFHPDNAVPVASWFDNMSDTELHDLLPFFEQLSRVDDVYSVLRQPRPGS

[5] = target: T4, Tyrosine-protein phosphatase non-receptor type 5 (Homo sapiens, UniProt P54829); experiment: PTPN5 enzyme inhibition – biochemical, fluorescence intensity, uHTS hits, confirmation (AID 602372); type: functional; details: read-out: IC50_Mean
T4 sequence (P54829 whole entry): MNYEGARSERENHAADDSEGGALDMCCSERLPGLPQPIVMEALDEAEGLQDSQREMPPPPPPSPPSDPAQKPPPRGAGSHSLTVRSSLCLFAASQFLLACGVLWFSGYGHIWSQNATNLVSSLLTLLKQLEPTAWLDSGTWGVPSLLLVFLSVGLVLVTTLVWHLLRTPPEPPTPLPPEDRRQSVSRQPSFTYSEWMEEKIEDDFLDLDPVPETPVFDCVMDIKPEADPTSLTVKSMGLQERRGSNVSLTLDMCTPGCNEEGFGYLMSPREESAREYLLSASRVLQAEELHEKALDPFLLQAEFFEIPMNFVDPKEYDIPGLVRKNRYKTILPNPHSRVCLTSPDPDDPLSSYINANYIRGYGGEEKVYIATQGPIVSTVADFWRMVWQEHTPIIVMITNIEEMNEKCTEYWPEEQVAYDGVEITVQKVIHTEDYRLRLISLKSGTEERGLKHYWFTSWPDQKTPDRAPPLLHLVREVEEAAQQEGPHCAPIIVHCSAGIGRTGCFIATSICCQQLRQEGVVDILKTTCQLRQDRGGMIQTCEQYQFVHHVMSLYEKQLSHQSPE

[6] = target: Serine/threonine-protein phosphatase PP1-alpha catalytic subunit (Homo sapiens, UniProt P62136); experiment: inhibition of protein phosphatase 1 activity – biochemical, fluorescence, dose response (AID 2394)
Sequence of Serine/threonine-protein phosphatase PP1-alpha catalytic subunit (P62136 whole entry): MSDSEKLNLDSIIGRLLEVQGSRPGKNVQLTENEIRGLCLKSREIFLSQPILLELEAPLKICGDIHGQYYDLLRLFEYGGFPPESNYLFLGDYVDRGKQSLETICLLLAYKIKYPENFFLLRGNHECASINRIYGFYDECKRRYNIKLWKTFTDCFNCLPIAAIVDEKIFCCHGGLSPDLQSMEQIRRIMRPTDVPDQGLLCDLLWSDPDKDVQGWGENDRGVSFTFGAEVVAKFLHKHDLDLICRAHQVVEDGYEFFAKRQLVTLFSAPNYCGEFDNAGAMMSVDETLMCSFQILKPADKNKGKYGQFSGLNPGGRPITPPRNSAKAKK

SUMO-activating enzyme = SUMO-activating enzyme (Homo sapiens, UniProt Q9UBT2); experiment: blockers of UBC9-mediated SUMO conjugation – biochemical, AlphaScreen, SUMOylation inhibitor project, confirmation (AID 2018); type: functional
Sequence of SUMO-activating enzyme (Q9UBE0 whole entry): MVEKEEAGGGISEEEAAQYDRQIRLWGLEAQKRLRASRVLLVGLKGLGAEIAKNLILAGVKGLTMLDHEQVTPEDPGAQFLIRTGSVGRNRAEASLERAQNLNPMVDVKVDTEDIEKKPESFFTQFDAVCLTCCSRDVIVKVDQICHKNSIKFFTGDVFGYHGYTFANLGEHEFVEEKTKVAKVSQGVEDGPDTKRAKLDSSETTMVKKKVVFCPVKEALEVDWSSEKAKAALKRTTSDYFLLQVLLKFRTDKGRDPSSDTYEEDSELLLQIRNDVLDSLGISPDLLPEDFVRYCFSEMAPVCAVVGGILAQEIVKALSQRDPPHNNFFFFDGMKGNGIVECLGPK
Sequence of SUMO-activating enzyme (Q9UBT2 whole entry): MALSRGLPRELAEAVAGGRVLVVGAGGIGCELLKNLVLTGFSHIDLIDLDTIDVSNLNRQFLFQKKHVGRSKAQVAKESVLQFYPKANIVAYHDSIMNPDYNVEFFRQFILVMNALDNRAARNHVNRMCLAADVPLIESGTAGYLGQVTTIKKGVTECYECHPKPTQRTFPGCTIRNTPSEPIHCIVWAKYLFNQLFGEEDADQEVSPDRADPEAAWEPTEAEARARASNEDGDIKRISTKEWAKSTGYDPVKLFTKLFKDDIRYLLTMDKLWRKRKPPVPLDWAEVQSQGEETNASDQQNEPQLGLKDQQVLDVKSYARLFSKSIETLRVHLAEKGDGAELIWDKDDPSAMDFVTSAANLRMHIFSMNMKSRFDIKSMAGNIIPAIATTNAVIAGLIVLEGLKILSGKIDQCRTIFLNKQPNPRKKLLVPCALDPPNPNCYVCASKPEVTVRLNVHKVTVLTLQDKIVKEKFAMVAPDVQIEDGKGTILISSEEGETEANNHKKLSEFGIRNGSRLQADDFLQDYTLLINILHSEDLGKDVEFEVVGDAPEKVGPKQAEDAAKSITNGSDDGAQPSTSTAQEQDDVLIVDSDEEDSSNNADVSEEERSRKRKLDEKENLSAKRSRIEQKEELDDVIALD

[7] = target: T5, Serine/threonine-protein phosphatase (Homo sapiens, UniProt Q9BPW0); experiment: inhibition of protein phosphatase 5 activity – biochemical, fluorescence, dose response (AID 2395)
T5 sequence (Q9BPW0 whole entry): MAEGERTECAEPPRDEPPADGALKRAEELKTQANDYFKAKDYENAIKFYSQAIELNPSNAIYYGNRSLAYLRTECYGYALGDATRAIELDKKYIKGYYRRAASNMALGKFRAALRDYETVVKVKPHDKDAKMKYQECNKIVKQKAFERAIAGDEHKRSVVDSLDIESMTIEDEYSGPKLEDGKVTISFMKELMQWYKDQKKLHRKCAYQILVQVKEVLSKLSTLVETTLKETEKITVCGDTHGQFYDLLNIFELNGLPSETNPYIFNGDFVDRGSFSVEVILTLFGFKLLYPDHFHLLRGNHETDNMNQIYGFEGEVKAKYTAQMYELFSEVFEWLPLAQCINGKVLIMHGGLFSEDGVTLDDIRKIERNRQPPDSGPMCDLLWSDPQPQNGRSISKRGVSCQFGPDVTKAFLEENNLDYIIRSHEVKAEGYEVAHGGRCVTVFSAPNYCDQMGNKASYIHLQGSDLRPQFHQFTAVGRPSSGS

Structure (SMILES) | IC50 [1] | IC50 [2] | IC50 [3] | IC50 [4] | IC50 [5] | IC50 [6] | IC50 (SUMO-activating enzyme) | IC50 [7]
CCOC(=O)c1sc2nc3c(SCC(=O)O)cc(C(=O)c4ccccc4O)cn3c(=O)c2c1C | > 99 µM (inactive) | 1.24 µM (active) | 0.218 µM (active) | 14.8 µM (active) | 2.18 µM (active) | – | – | –
C=CCn1c(NC(=O)c2ccccc2Cl)c(C#N)c2nc3ccccc3nc21 | – | – | – | – | – | 43.6 µM (not active) | 0.86 µM (active) | > 7.45 µM (active)
